Results as given in patent US10710980B2, “Aminopyridine derivatives and their use as selective ALK-2 inhibitors” (priority 2016, dated 2020).

How the values were obtained:
ALK5 (aa162-503) = ALK5 (aa162-503) (Homo sapiens (Human), UniProt P36897); experiment: Caliper biochemical peptide phosphorylation assay, ALK5; settings: 15 μm ATP, 60 min at 30° C.; read-out: ALK5 EPK (IC50)
ALK6 (aa168-495) = ALK6 (aa168-495) (Homo sapiens (Human), UniProt O00238); experiment: Caliper biochemical peptide phosphorylation assay, ALK6; settings: 15 μm ATP, 60 min at 30° C.; read-out: ALK6 EPK (IC50)
ALK1 (aa166-493) = ALK1 (aa166-493) (Homo sapiens (Human), UniProt P37023); experiment: Caliper biochemical peptide phosphorylation assay, ALK1; settings: 15 μm ATP, 60 min at 30° C.; read-out: ALK1 EPK (IC50)
[1] = molecular target: T1, wild-type ALK2 (aa172-499) (Homo sapiens (Human), UniProt Q04771); experiment: Caliper biochemical peptide phosphorylation assay, ALK2; settings: 15 μm ATP, 60 min at 30° C.; read-out: ALK2 EPK (IC50)
[2] = molecular target: T1, wild-type ALK2 (aa172-499); experiment: ADPGlo biochemical autophosphorylation assay, ALK2; settings: 15 μm ATP, 60 min at 32° C.
[3] = tested on: BMP response element (BRE) luciferase reporter in HuH7 cells, BMP6 stimulated; experiment: BMP signaling reporter gene assay; format: cell-based; settings: Homo sapiens, Huh-7; HuH7 BRE-luciferase, BMP6 100 ng/ml, 5 hours; read-out: MSD BMP RGA IC50
ALK3 (aa198-525) = ALK3 (aa198-525) (Homo sapiens (Human), UniProt P36894); experiment: ADPGlo biochemical autophosphorylation assay, ALK3; settings: 15 μm ATP, 60 min at 32° C.
ALK3 (aa198-525), sequence (P36894 198-525): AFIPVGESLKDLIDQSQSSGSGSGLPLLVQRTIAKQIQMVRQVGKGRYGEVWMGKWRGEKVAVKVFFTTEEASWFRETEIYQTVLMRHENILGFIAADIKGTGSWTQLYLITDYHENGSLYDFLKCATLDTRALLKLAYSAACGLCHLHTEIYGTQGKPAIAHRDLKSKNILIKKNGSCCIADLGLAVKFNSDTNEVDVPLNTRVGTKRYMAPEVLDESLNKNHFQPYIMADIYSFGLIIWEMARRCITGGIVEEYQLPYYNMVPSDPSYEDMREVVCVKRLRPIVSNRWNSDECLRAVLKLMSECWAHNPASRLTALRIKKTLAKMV

ALK5 (aa162-503), sequence (P36897 162-503): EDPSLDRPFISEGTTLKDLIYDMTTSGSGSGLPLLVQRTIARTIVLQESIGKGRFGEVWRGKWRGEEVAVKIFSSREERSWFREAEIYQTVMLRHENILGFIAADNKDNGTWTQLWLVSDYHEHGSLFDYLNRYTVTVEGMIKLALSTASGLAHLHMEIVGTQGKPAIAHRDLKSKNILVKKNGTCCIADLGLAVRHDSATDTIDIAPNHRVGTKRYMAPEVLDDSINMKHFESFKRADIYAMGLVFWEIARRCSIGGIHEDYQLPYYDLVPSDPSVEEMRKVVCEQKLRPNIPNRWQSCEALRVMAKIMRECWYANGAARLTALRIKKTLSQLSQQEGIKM
ALK6 (aa168-495), sequence (O00238 168-495): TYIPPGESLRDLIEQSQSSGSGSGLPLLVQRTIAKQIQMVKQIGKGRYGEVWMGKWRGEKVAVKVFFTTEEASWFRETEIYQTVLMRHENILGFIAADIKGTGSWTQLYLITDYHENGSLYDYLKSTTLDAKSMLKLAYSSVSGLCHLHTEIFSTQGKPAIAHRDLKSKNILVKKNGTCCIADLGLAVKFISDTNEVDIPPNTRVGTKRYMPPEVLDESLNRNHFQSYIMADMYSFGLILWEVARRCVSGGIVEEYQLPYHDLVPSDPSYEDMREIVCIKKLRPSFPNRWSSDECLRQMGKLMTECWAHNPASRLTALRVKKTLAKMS
T1 sequence (Q04771 172-499): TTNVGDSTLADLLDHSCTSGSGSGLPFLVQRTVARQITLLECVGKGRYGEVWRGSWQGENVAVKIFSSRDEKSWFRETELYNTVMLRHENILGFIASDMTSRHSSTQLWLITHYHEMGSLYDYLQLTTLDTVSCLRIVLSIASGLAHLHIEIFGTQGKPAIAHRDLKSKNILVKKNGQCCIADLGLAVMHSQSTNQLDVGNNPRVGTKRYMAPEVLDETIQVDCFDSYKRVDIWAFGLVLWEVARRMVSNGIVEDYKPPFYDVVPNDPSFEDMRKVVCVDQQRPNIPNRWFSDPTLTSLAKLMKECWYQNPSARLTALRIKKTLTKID
ALK1 (aa166-493), sequence (P37023 166-493): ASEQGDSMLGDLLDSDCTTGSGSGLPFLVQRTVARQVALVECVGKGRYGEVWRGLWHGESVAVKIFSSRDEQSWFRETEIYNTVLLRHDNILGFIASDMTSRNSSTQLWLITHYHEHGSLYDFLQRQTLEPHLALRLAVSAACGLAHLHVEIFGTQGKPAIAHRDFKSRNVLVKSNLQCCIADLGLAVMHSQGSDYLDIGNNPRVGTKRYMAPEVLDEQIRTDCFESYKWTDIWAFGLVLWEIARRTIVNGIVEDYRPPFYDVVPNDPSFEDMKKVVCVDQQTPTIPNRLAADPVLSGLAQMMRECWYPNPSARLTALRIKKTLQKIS

Structure (SMILES)	IC50 (ALK5 (aa162-503))	IC50 (ALK6 (aa168-495))	IC50 (ALK1 (aa166-493))	IC50 [1]	IC50 [2]	IC50 [3]	IC50 (ALK3 (aa198-525))
C[C@H](c1ccc(-c2cnc(N)c(C(=O)N[C@H]3CC[C@H](O)CC3)c2)cc1)N1CC2(COC2)C1 [Example 3, 5-(4-((R)-1-(2-oxa-6-azaspiro[3.3]heptan-6-yl)ethyl)phenyl)-2-amino-N-((1r,4R)-4-hydroxycyclohexyl)nicotinamide]	2130 nM	1730 nM	136 nM	11 nM	12 nM	62 nM	1050 nM
COCCN1C[C@@H]2C[C@]2(c2ccc(-c3cnc(N)c(C(=O)N[C@H]4CC[C@H](O)CC4)c3)cc2)C1 [Example 20, 2-amino-N-((1r,4S)-4-hydroxycyclohexyl)-5-(4-((1S,5R)-3-(2-methoxyethyl)-3-azabicyclo[3.1.0]hexan-1-yl)phenyl)nicotinamide]	3800 nM	3950 nM	130 nM	17 nM	7 nM	40 nM	1350 nM
C[C@]1(O)CC[C@H](NC(=O)c2cc(-c3ccc([C@@]45C[C@@H]4CN(C4CCC(F)(F)CC4)C5)cc3)cnc2N)CC1 [Example 82, 2-amino-5-(4-((1R,5S)-3-(4,4-difluorocyclohexyl)-3-azabicyclo[3.1.0]hexan-1-yl)phenyl)-N-((1r,4R)-4-hydroxy-4-methylcyclohexyl)nicotinamide]	10000 nM	10000 nM	1600 nM	117 nM	82 nM	56 nM	9500 nM
C[C@H](c1ccc(-c2cnc(N)c(C(=O)N[C@H]3CC[C@](C)(O)CC3)c2)cc1)N1CC2(COC2)C1 [Example 59, 5-(4-((R)-1-(2-oxa-6-azaspiro[3.3]heptan-6-yl)ethyl)phenyl)-2-amino-N-((1r,4R)-4-hydroxy-4-methylcyclohexyl)nicotinamide]	9100 nM	7700 nM	770 nM	33 nM	24 nM	405 nM	2700 nM
CC(C)N1CCN(c2ccc(-c3cnc(N)c(C(=O)N[C@H]4CC[C@H](O)CC4)c3)c(F)c2)CC1 [Example 8, 2-amino-5-(2-fluoro-4-(4-isopropylpiperazin-1-yl)phenyl)-N-((1r,4r)-4-hydroxycyclohexyl)nicotinamide]	4000 nM	5000 nM	220 nM	12 nM	13 nM	69 nM	1900 nM
Nc1ncc(-c2ccc([C@@]34C[C@@H]3CN(C(CF)CF)C4)cc2)cc1C(=O)N[C@H]1CC[C@H](O)CC1 [Example 6, 2-amino-5-(4-((1R,5S)-3-(1,3-difluoropropan-2-yl)-3-azabicyclo[3.1.0]hexan-1-yl)phenyl)-N-((1r,4R)-4-hydroxycyclohexyl)nicotinamide]	10000 nM	5200 nM	220 nM	15 nM	18 nM	870 nM	940 nM
Nc1ncc(-c2ccc([C@]34C[C@H]3CN(C3CCC(F)(F)CC3)C4)cc2)cc1C(=O)NC12CCC(O)(CC1)CC2 [Example 35, 2-amino-5-(4-((1S,5R)-3-(4,4-difluorocyclohexyl)-3-azabicyclo[3.1.0]hexan-1-yl)phenyl)-N-(4-hydroxybicyclo[2.2.2]octan-1-yl)nicotinamide]	5720 nM	4500 nM	283 nM	21 nM	17 nM	73 nM	903 nM
C[C@@H](c1ccc(-c2cnc(N)c(C(=O)N[C@H]3CC[C@H](O)CC3)c2)cc1)N1CC2(COC2)C1 [Example 4, 5-(4-((S)-1-(2-oxa-6-azaspiro[3.3]heptan-6-yl)ethyl)phenyl)-2-amino-N-((1r,4R)-4-hydroxycyclohexyl)nicotinamide]	2450 nM	1850 nM	175 nM	13 nM	5 nM	108 nM	830 nM
Nc1ncc(-c2ccc([C@]34C[C@H]3CN(CCC(F)(F)F)C4)cc2)cc1C(=O)N[C@H]1CC[C@H](O)CC1 [Example 17, 2-amino-N-((1r,4S)-4-hydroxycyclohexyl)-5-(4-((1S,5R)-3-(3,3,3-trifluoropropyl)-3-azabicyclo[3.1.0]hexan-1-yl)phenyl)nicotinamide]	1600 nM	2400 nM	110 nM	14 nM	12 nM	150 nM	2000 nM
Nc1ncc(-c2ccc([C@]34C[C@H]3CN(C3COC3)C4)cc2)cc1C(=O)N[C@H]1CC[C@H](O)CC1 [Example 26, 2-amino-N-((1r,4S)-4-hydroxycyclohexyl)-5-(4-((1S,5R)-3-(oxetan-3-yl)-3-azabicyclo[3.1.0]hexan-1-yl)phenyl)nicotinamide]	4300 nM	2500 nM	230 nM	18 nM	18 nM	110 nM	1700 nM
CC(C)N1C[C@H]2C[C@@]2(c2ccc(-c3cnc(N)c(C(=O)NC45CC(CO)(C4)C5)c3)cc2)C1 [Example 36, 2-amino-N-(3-(hydroxymethyl)bicyclo[1.1.1]pentan-1-yl)-5-(4-((1R,5S)-3-isopropyl-3-azabicyclo[3.1.0]hexan-1-yl)phenyl)nicotinamide]	10000 nM	7200 nM	295 nM	23 nM	16 nM	43 nM	1450 nM
C[C@H](c1ccc(-c2cnc(N)c(C(=O)NC34CC5CC(CC(O)(C5)C3)C4)c2)cc1)N1CC2(COC2)C1 [Example 68, 5-(4-((R)-1-(2-oxa-6-azaspiro[3.3]heptan-6-yl)ethyl)phenyl)-2-amino-N-((1r,3R)-3-hydroxyadamantan-1-yl)nicotinamide]	10000 nM	10000 nM	2500 nM	49 nM	34 nM	950 nM	8000 nM
Nc1ncc(-c2ccc([C@]34C[C@H]3CN(C3COC3)C4)cc2)cc1C(=O)NC12CCC(O)(CC1)CC2 [Example 63, 2-amino-N-(4-hydroxybicyclo[2.2.2]octan-1-yl)-5-(4-((1S,5R)-3-(oxetan-3-yl)-3-azabicyclo[3.1.0]hexan-1-yl)phenyl)nicotinamide]	6700 nM	3500 nM	940 nM	57 nM	91 nM	390 nM	1800 nM
CN1CCN(C(=O)c2ccc(-c3cnc(N)c(C(=O)N[C@H]4CC[C@@H](O)CC4)c3)cc2)CC1 [Example 79, 2-amino-N-((1s,4s)-4-hydroxycyclohexyl)-5-(4-(4-methylpiperazine-1-carbonyl)phenyl)nicotinamide]	4100 nM	10000 nM	890 nM	87 nM	86 nM	2700 nM	6500 nM
COCCN1C[C@H]2C[C@@]2(c2ccc(-c3cnc(N)c(C(=O)N[C@H]4CC[C@H](O)CC4)c3)cc2)C1 [Example 75, 2-amino-N-((1r,4R)-4-hydroxycyclohexyl)-5-(4-((1R,5S)-3-(2-methoxyethyl)-3-azabicyclo[3.1.0]hexan-1-yl)phenyl)nicotinamide]	4600 nM	7700 nM	210 nM	140 nM	11 nM	330 nM	1800 nM
CC(C)N1C[C@@H]2C[C@]2(c2ccc(-c3cnc(N)c(C(=O)NC45CC(CO)(C4)C5)c3)cc2)C1 [Example 16, 2-amino-N-(3-(hydroxymethyl)bicyclo[1.1.1]pentan-1-yl)-5-(4-((1S,5R)-3-isopropyl-3-azabicyclo[3.1.0]hexan-1-yl)phenyl)nicotinamide]	9900 nM	5000 nM	240 nM	15 nM	12 nM	79 nM	1400 nM
C#CCN1C[C@H]2C[C@@]2(c2ccc(-c3cnc(N)c(C(=O)N[C@H]4CC[C@H](O)CC4)c3)cc2)C1 [Example 54, 2-amino-N-((1r,4R)-4-hydroxycyclohexyl)-5-(4-((1R,5S)-3-(prop-2-yn-1-yl)-3-azabicyclo[3.1.0]hexan-1-yl)phenyl)nicotinamide]	5300 nM	3500 nM	140 nM	33 nM	11 nM	395 nM	920 nM
CC#CCN1C[C@H]2C[C@@]2(c2ccc(-c3cnc(N)c(C(=O)N[C@H]4CC[C@H](O)CC4)c3)cc2)C1 [Example 60, 2-amino-5-(4-((1R,5S)-3-(but-2-yn-1-yl)-3-azabicyclo[3.1.0]hexan-1-yl)phenyl)-N-((1r,4R)-4-hydroxycyclohexyl)nicotinamide]	6300 nM	6300 nM	170 nM	42 nM	11 nM	84 nM	990 nM
